US11472846B2, “Compositions and methods for treating diseases by inhibiting exosome release” (priority 2016, dated 2022)

Assays:
Format in all cases: cell-based, human
[1] = tested on: MDA-MB-231 cells; test: Complement-mediated cell cytotoxicity assay (trypan blue), MDA-MB-231; settings: for cell death under complement-positive conditions: 280 nM PEG-SMRwt-Clu or 560 nM SMRwt-CPP 60 min, then anti-CXCR4 antibody and NHS 60 min; for cell death under complement-negative conditions: 280 nM PEG-SMRwt-Clu or 560 nM SMRwt-CPP, 60 min
Experimental: 7-9. Complement-mediated cell cytotoxicity assay. Complement-mediated cell cytotoxicity assays were performed as previously described (Reiter et al., Mol Immunol. (1992) 29(6): p. 771-81). Briefly, MCF-7, MDA-MB-231 and K562 cells were either mock-transfected or transfected with mortalin siRNA. […] or SMRwt-CPP peptide or SMRmut-CPP peptide alone, or treated with SMR peptide combined with complement from normal human serum (NHS) or heat-inactivated normal human serum (NIS) for 60 min at 37° C. Percentage of cells lysed were determined by a trypan blue exclusion assay using the TC10™ Automated Cell Counter (Bio-Rad, Richmond Calif.). (FIG. 14, FIG. 15, Panel D).

[2] = tested on: K562 cells; test: Complement-mediated cell cytotoxicity assay (trypan blue), K562; settings: for cell death under complement-positive conditions: 280 nM PEG-SMRwt-Clu or 560 nM SMRwt-CPP 60 min, then anti-CXCR4 antibody and NHS 60 min; for cell death under complement-negative conditions: 280 nM PEG-SMRwt-Clu or 560 nM SMRwt-CPP, 60 min
Experimental: 7-9. Complement-mediated cell cytotoxicity assay. Complement-mediated cell cytotoxicity assays were performed as previously described (Reiter et al., Mol Immunol. (1992) 29(6): p. 771-81). Briefly, MCF-7, MDA-MB-231 and K562 cells were either mock-transfected or transfected with mortalin siRNA. Cells were incubated with 1 μg/ml of anti-CXCR4 antibody for 30 min at 4° C., followed by treatment with PEG-SMRwt-Clu peptide or PEG-SMRmut-Clu peptide or SMRwt-CPP peptide or SMRmut-CPP peptide alone, or treated with SMR peptide combined with complement from normal human serum (NHS) or heat-inactivated normal human serum (NIS) for 60 min at 37° C. Percentage of cells lysed were determined by a trypan blue exclusion assay using the TC10™ Automated Cell Counter (Bio-Rad, Richmond Calif.). (FIG. 14, FIG. 15, Panel D).

[3] = tested on: MCF-7 breast cancer cells; test: InnoCyte cell migration assay, MCF-7; settings: MCF-7 cells, 1120 nM SMR peptide or 3 μM Latrunculin A, 24 hours
Experimental: 7-12. Cell migration assay. Cell migration assays were performed using the InnoCyte Cell Migration Assay (EMD Millipore Corporation, Temecula, Calif.) according to the manufacturer's instructions. Briefly, cell migration was monitored in the presence and absence of SMRwt peptides or latrunculin A (positive control inhibitor), which were added to the lower chamber of a 96-well plate. MCF-7 and MDA-MB-231 breast cancer cells and non-tumorigenic MCF-10A breast cells were harvested by 0.25% Trypsin-EDTA (Life Technologies) release and resuspended at 250,000500,000 cells/ml in serum-free RPMI 1640 media. A total of 25,000-50,000 cells was added to the upper chamber and allowed to migrate through an 8-μm pore-size membrane for 24 hours at 37° C. in a 5% CO2 atmosphere. Cells that migrated through the membrane were detached and labeled with Calcein-AM fluorescent dye. Fluorescence was measured using a Fluorescence Plate Reader (Molecular Devices, Sunnyvale, Calif.) with an excitation wavelength of 485 nm and an emission wavelength of 515 nm. The experiment was repeated in triplicate, and each conditioned experiment was performed in quadruplicate.

Row | Sequence | cell death under complement-positive conditions [1] | cell death under complement-negative conditions [1] | cell death under complement-positive conditions [2] | cell death under complement-negative conditions [2] | reduced migration by [3]
1 | NXNVGFPVAAVGFPVHPLSKHPYWSQP (SEQ ID NO: 37) [PEG-SMRwt-Clu] | 76% | 3.6% | 55% | 4.3% | 75.74%
2 | VGFPVAAVGFPVGRKKRRQRRRPPQ [SMRwt-CPP] | 9% | 3.6% | 23% | 4.3% | 71.87%
